Here are results for 15 compounds from US20050014137A1, “Lentivirus assay system including Vif protein activity” (priority 2003, published 2005).

In assay [1] the test system is HIV-1 NL4.3. In words: MT-2 cell-based HIV co-culture assay (HeLa CD4 LTR/lacZ indicator cells, β-Gal reporter). Particulars: for pEC50: read-out: MT-2 Co-Culture Assay EC50; for EC90: read-out: MT-2 Co-Culture Assay EC90. The procedure: HeLa CD4 LTR/lacZ indicator cells were added to 96-well microtiter plates at cell densities of 1×10^4 cells/well in DMEM or RPMI medium (Life Technologies) containing 10% FBS (HyClone). MT-2 cells were infected with HIV-1 NL4.3 using 656, 1312, 2624, or 5248 TCID50s per 1.6×10^4 cells. Two hours after infection, infected MT-2 cells were washed with RPMI medium (Life Technologies) and added to the 96-well microtiter plates containing the HeLa CD4 LTR/lacZ indicator cells. The final MT2-cell densities in the indicator wells were 1.6×10^4 cells/well.
Virus replication was measured 4 days after infection by quantifying HIV-1 Tat induced beta-galactosidase (β-Gal) activity in the HeLa CD4 LTR/lacZ indicator cells using the Dual-Light™ System according to the manufacturer's protocol (Applied Biosystems). Experiments were performed in replicates of 3 or more.
Half-log dilutions of test compounds were added to HeLa CD4 LTR/lacZ indicator cells seeded in 96-well plates at a cell density of 1×10^4 cells per well in DMEM or RPMI (Life Technologies) containing 10% FBS (HyClone). MT-2 cells were infected with HIV-1 NL4.3 virus at an MOI of 0.08. Two hours after infection, infected cells were washed with RPMI, resuspended in RPMI medium, and added to the 96-well plates containing compound-treated or compound free HeLa CD4 LTR/lacZ indicator cells. Virus replication was measured 3 or 4 days after infection by quantifying HIV-1 Tat induced β-Gal activity in the HeLa CD4 LTR/lacZ indicator cells using the Dual-Light™ System according to the manufacturer's protocol (Applied Biosystems).
Data was expressed as the percent of reporter gene activity in infected compound-treated cells relative to that of infected, compound-free cells.

Assay [2] deals with HIV-1 NL4.3. In words: PM1 cell-based HIV co-culture assay (HeLa CD4 LTR/lacZ indicator cells, β-Gal reporter). Particulars: for pEC50: read-out: PM-1 Co-Culture Assay EC50; for EC90: read-out: PM-1 Co-Culture Assay EC90.
Excerpt: (§1) The modifications were as follows: PM1 cells were used in place of the MT-2 cells.
as §1

For assay [3], the system named is HIV-1. Particulars: range of EC50 values reported in the literature, NIH anti-HIV therapeutics database, cited from earlier work.
Assay [4] has as its system HIV-1 NL4.3. In words: Direct infection of HeLa CD4 LTR/lacZ indicator cells (known reporter cell assay). It counts as cell-based. From the text:
This Example compared the present HIV co-culture assay with a known reporter cell-based assay method. This known method involved direct infection of HeLa CD4 LTR/lacZ indicator cells with HIV-1 (Kimpton and Emerman, J. Virol., 66(4):2232-2239 (1992)).
HeLa CD4 LTR/lacZ indicator cells were directly infected with TCID50s identical to those used in the co-culture experiments described in Examples 1 and 2. HeLa CD4 LTR/lacZ indicator cells were infected directly with HIV-1 NL4.3 using 656, 1312, 2624, or 5248 TCID50s per 1×10^4 cells.

The mark [5] stands for this setting: Human immunodeficiency virus 1, MT2, 96 h.
The mark [6] stands for this setting: Human immunodeficiency virus 1, PM1, 96 h.
Setting [7] is: Human immunodeficiency virus 1, MT2, 96 h, induced β-Gal activity 4 days after HIV-1 NL4.3 infection, MT-2 cells, MOI 0.08.
[8] abbreviates: Human immunodeficiency virus 1, PM1, 96 h, induced β-Gal activity 4 days after HIV-1 NL4.3 infection, PM-1 cells.
The mark [9] stands for this setting: read-out: Literature EC50 (Table 1).
The mark [10] stands for this setting: read-out: Literature EC50 (Table 2).
The mark [11] stands for this setting: Human immunodeficiency virus 1, 96 h, read-out: inhibition of the reporter signal.
The mark [12] stands for this setting: induced β-Gal activity 4 days after HIV-1 NL4.3 infection, MT-2 cells, MOI 0.08.
Setting [13] is: induced β-Gal activity 4 days after HIV-1 NL4.3 infection, PM-1 cells.

pEC50: −log10 of the molar value. Read-outs that look alike come from different tables or passages of the source.

For orientation: pEC50 means −log10 of the EC50, conventionally taken in molar units. The term EC90 denotes the point of the concentration-response curve where the effect stands at 90%. In the case of `Nc1ccn([C@@H]2CS[C@H](CO)O2)c(=O)n1` [3TC, lamivudine], in assay [1] (setting [5]), the pEC50 was 6.38 and the EC90 stood at 5500 nM. In assay [2] (setting [6]), the pEC50 was 6.74 and the EC90 came to 1700 nM.
Regarding `CC(C)(C)C(=O)OCOP(=O)(COCCn1cnc2c(N)ncnc21)OCOC(=O)C(C)(C)C` [ADV, adefovir dipivoxil], the pEC50 in assay [1] (setting [7]) is 7.41; in assay [2] (setting [8]) it was 7.60; in assay [3] (setting [9]) it was 6.30 to 7.40; in assay [3] (setting [10]) it was 6.30 to 7.40. Further, the EC90 in assay [1] (setting [7]) was found to be 220 nM; in assay [2] (setting [8]), 150 nM.
Consider `O=C(O)C1=CC(=C(c2ccc(O)c(C(=O)O)c2)c2ccc(O)c(C(=O)O)c2)C=CC1=O` [ATA, aurintricarboxylic acid], for which, in assay [1] (setting [5]), the negative logarithm of the EC50 (pEC50) is 5.48 and the EC90 worked out at 9900 nM.
For `Cc1cn([C@H]2C[C@H](N=[N+]=[N-])[C@@H](CO)O2)c(=O)[nH]c1=O` [AZT, 3′-Azido-3′-deoxythymidine], the pEC50 was 7.51 in assay [1] (setting [5]), 7.52 in assay [2] (setting [6]), 7.05 to 8.22 in assay [3] (setting [9]) and 7.05 to 8.22 in assay [3] (setting [10]). Moreover, the EC90 in assay [1] (setting [5]) is 280 nM; in assay [2] (setting [6]) it was 180 nM.
Consider `CC(C)c1nc(COC(N)=O)n(Cc2ccncc2)c1Sc1cc(Cl)cc(Cl)c1` [CPV, Capravirine], for which, in assay [1] (setting [5]), the pEC50 was 8.62 and the EC90 stood at 12 nM.
Turning to `CC(C)Nc1cccnc1N1CCN(C(=O)c2cc3cc(NS(C)(=O)=O)ccc3[nH]2)CC1` [DLV, delavirdine], the pEC50 is 7.47 in assay [1] (setting [5]), 8.23 in assay [2] (setting [6]), 8.00 to 10.00 in assay [3] (setting [9]) and 8.00 to 10.00 in assay [3] (setting [10]). In addition, the values for the concentration for an effect of 90% (EC90) in assay [1] (setting [5]) and in assay [2] (setting [6]) were 110 nM and 100 nM, respectively.
Usually inhibition stands for the percentage by which the read-out fell short of the control. As to `O=C1Nc2ccc(Cl)cc2[C@@](C#CC2CC2)(C(F)(F)F)O1` [EFV, efavirenz], in assay [1] (setting [11]), the inhibition at 0.1 µM is greater than 99%. The pEC50 in assay [1] (setting [5]) was 8.85; in assay [2] (setting [6]), 9.72. In addition, the EC90 in assay [1] (setting [5]) turned out to be 4.3 nM; in assay [2] (setting [6]) it was 6.2 nM. In addition, the “inhibition of the reporter signal” value in assay [4] (inhibitor at >10×EC90) was greater than 99%.
Consider `CC(C)(C)NC(=O)[C@@H]1CN(Cc2cccnc2)CCN1C[C@@H](O)C[C@@H](Cc1ccccc1)C(=O)N[C@H]1c2ccccc2C[C@H]1O` [IDV, indinavir], for which the pEC50 was 7.59 in assay [1] (setting [5]), 7.92 in assay [2] (setting [6]), 7.22 to 8.96 in assay [3] (setting [9]) and 7.22 to 8.96 in assay [3] (setting [10]). The figures for the EC90 in assay [1] (setting [5]) and in assay [2] (setting [6]) were 55 nM and 47 nM, respectively.
Turning to `O=C(NCc1ccc(F)cc1)c1nc(N2CCCCS2(=O)=O)c2cccnc2c1O` [L-870810], the pEC50 is 8.85 in assay [1] (setting [12]), 9.21 in assay [2] (setting [13]), 8.10 to 8.40 in assay [3] (setting [9]) and 8.10 to 8.40 in assay [3] (setting [10]). The EC90 in assay [1] (setting [12]) is 5.9 nM; in assay [2] (setting [13]), 2.4 nM.
On to `Cc1c(O)cccc1C(=O)N[C@@H](CSc1ccccc1)[C@H](O)CN1C[C@H]2CCCC[C@H]2C[C@H]1C(=O)NC(C)(C)C` [NFV, nelfinavir], for which the inhibition at 1 µM in assay [1] (setting [11]) was roughly 98%. In addition, the negative-log EC50 (pEC50) in assay [1] (setting [5]) is 7.74; in assay [2] (setting [6]), 8.00; in assay [3] (setting [9]) it was 7.37 to 8.00; in assay [3] (setting [10]), 7.37 to 8.00. In addition, the EC90 in assay [1] (setting [5]) was determined as 100 nM; in assay [2] (setting [6]), 58 nM. Further, the “inhibition of the reporter signal” value in assay [2] (PM1 co-culture, inhibitor at ≧10×EC90) is reported as 99%; in assay [4] (inhibitor at 10×EC90), 42%.
Regarding `Cc1ccnc2c1NC(=O)c1cccnc1N2C1CC1` [NVP, Nevirapine], the pEC50 in assay [1] (setting [7]) is 7.34; in assay [2] (setting [8]), 7.92; in assay [3] (setting [9]), 7.32 to 7.62; in assay [3] (setting [10]) it was 7.32 to 7.62. Moreover, the EC90 in assay [1] (setting [7]) was determined as 380 nM; in assay [2] (setting [6]) it was 260 nM.
As to `O=C(/C=C(\O)c1nc[nH]n1)c1ccc(Cc2ccc(F)cc2)o1` [S-1360], in assay [1] (setting [7]), the pEC50 was 7.06 and the EC90 came to 1090 nM. Moreover, in assay [2] (setting [8]), the pEC50 was 7.04 and the EC90 stood at 280 nM.
For the compound `CC(C)(C)NC(=O)[C@@H]1C[C@@H]2CCCC[C@@H]2CN1C[C@@H](O)[C@H](Cc1ccccc1)NC(=O)[C@H](CC(N)=O)NC(=O)c1ccc2ccccc2n1` [SQV, saquinavir], the pEC50 is 7.92 in assay [1] (setting [5]), 8.28 in assay [2] (setting [6]), 7.24 to 9.70 in assay [3] (setting [9]) and 7.24 to 9.70 in assay [3] (setting [10]). The EC90 in assay [1] (setting [5]) came to 26 nM; in assay [2] (setting [6]), 34 nM.
Consider `Cc1cn([C@H]2C=C[C@@H](CO)O2)c(=O)[nH]c1=O` [d4T, stavudine], for which, in assay [1] (setting [5]), the pEC50 was 6.68 and the EC90 turned out to be 3600 nM. Further, the pEC50 in assay [3] (setting [9]) is 5.10 to 8.00.
Turning to `O=c1[nH]cnc2c1ncn2[C@H]1CC[C@@H](CO)O1` [ddl, didanosine], the pEC50 was 5.77 in assay [1] (setting [5]) and 5.00 to 6.34 in assay [3] (setting [9]). The EC90 in assay [1] (setting [5]) came to 14000 nM.
